Consider ten compounds from PubChem BioAssay (NCI).

Among the test systems are IGROV1 ovarian; M14 melanoma; NCI-H226 lung; NCI-H460 lung; OVCAR-5 ovarian; SF-268 CNS; SF-295 CNS; SK-MEL-5 melanoma.
Common to all, as to assay: growth of human tumour cells (NCI), 48 h

Structures are written as SMILES.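 96-well plates; 48 h exposure; 5 concentrations. Endpoints by linear interpolation between flanking doses. Not reached: highest tested concentration assigned. The concentration for 50% growth inhibition is given as GI50. TGI: concentration producing complete growth inhibition.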

For the compound `COc1cc(Cl)cc(-c2nn(C(=O)NCCN3CCN(C)CC3)cc2-c2ccncc2)c1`, the GI50 with IGROV1 ovarian was 17.8 µM; in the assay with M14 melanoma, 9.46 µM; in the assay with NCI-H226 lung, 4.29 µM; in the assay on NCI-H460 lung, 21 µM; in the assay on OVCAR-5 ovarian, 17.9 µM; with SF-268 CNS it was 7.35 µM. The GI50 in the assay with SF-295 CNS was 7.73 µM; in the assay on SK-MEL-5 melanoma, 3.76 µM. In addition, the TGI was > 100 µM with IGROV1 ovarian; 29.3 µM with M14 melanoma; 57.3 µM with NCI-H226 lung; 60.4 µM in the assay with NCI-H460 lung; 68.2 µM in the assay with OVCAR-5 ovarian; > 100 µM with SF-268 CNS. For the same compound, the figures for the TGI with SF-295 CNS and with SK-MEL-5 melanoma were 46.6 µM and 16.7 µM, respectively.

As for `O=C(Nc1ccc(-n2cc(-c3ccncc3)c(-c3ccc(Cl)c(O)c3)n2)cc1)Nc1cc(C(F)(F)F)cc(C(F)(F)F)c1`, the GI50 in the assay on IGROV1 ovarian is 2.04 µM; with M14 melanoma it was 1.76 µM; with NCI-H226 lung, 2.45 µM; with NCI-H460 lung it was 1.92 µM; in the assay on OVCAR-5 ovarian, 2.26 µM; with SF-268 CNS it was 1.62 µM. Also, the GI50 with SF-295 CNS was 1.47 µM; in the assay on SK-MEL-5 melanoma, 1.67 µM. Also, the TGI is 4.45 µM in the assay with IGROV1 ovarian; 3.56 µM in the assay on M14 melanoma; 10.6 µM with NCI-H226 lung; 3.85 µM in the assay with NCI-H460 lung; 7.21 µM with OVCAR-5 ovarian; 3.27 µM in the assay on SF-268 CNS. Also, the TGI in the assay on SF-295 CNS worked out at 3.08 µM; in the assay with SK-MEL-5 melanoma, 3.41 µM.

With `COc1ccc2nc(-c3ccccc3)cc(Nc3ccc(C(C)=O)cc3)c2c1`, the GI50 in the assay on IGROV1 ovarian was 15.8 µM; in the assay with M14 melanoma, 2.61 µM; in the assay with NCI-H226 lung it was 0.94 µM; with NCI-H460 lung, 5.73 µM; in the assay with OVCAR-5 ovarian, 6.3 µM; in the assay on SF-268 CNS it was 7.51 µM. The GI50 in the assay on SK-MEL-5 melanoma is 1.6 µM. In addition, the TGI is > 100 µM with IGROV1 ovarian; 7.25 µM in the assay on M14 melanoma; 3.46 µM in the assay with NCI-H226 lung; 19.3 µM with NCI-H460 lung; 19.1 µM in the assay with OVCAR-5 ovarian; 31 µM with SF-268 CNS. For the same compound, the results for the TGI in the assay on SF-295 CNS and with SK-MEL-5 melanoma were 1.57 µM and 3.86 µM, respectively.

Turning to `CC(=O)C1CC2(c3ccc(C)cc3)C(c3ccc(C)cc3)=C(c3ccc(C)cc3)C1(c1ccc(C)cc1)S2=O` (stereo not drawn), the GI50 with IGROV1 ovarian is 70.2 µM; with M14 melanoma, > 100 µM; in the assay on NCI-H226 lung, > 100 µM; in the assay on NCI-H460 lung it was > 100 µM; in the assay with OVCAR-5 ovarian, > 100 µM; in the assay with SF-268 CNS, > 100 µM. The GI50 in the assay with SF-295 CNS is 85 µM; in the assay with SK-MEL-5 melanoma, > 100 µM. The TGI with IGROV1 ovarian, in the assay with M14 melanoma, in the assay on NCI-H226 lung, with NCI-H460 lung, with OVCAR-5 ovarian and with SF-268 CNS was > 100 µM throughout. Also, the TGI in the assay on SF-295 CNS and with SK-MEL-5 melanoma was > 100 µM each time.

With `[N-]=[N+]=C(C(=O)OCC#CCOC(=O)C(=[N+]=[N-])S(=O)(=O)c1ccccc1)S(=O)(=O)c1ccccc1`, the TGI in the assay with IGROV1 ovarian, in the assay on M14 melanoma, in the assay with NCI-H226 lung, in the assay with NCI-H460 lung, with OVCAR-5 ovarian and in the assay with SF-268 CNS was > 10 µM throughout. In addition, the TGI in the assay with SF-295 CNS and in the assay on SK-MEL-5 melanoma was > 10 µM throughout.

As to `Cc1ccccc1CN1CC2=C(CCN(Cc3ccccc3)C2=O)N2CCN=C12`, the TGI with IGROV1 ovarian, in the assay with M14 melanoma, with NCI-H226 lung, with NCI-H460 lung, in the assay on OVCAR-5 ovarian and with SF-268 CNS was > 100 µM each time. For the same compound, the TGI in the assay on SF-295 CNS was > 60.4 µM; in the assay on SK-MEL-5 melanoma it was > 64.7 µM.

Turning to `COc1ccc(CNc2nc3cc(N)cc(N)c3nc2-c2ccccc2)cc1OC`, the GI50 in the assay on IGROV1 ovarian is 13.5 µM; in the assay with M14 melanoma it was 8.56 µM; in the assay with NCI-H226 lung it was 15.4 µM; with NCI-H460 lung, 27.1 µM; in the assay with OVCAR-5 ovarian it was 20.6 µM; with SF-268 CNS, 16.6 µM. Besides, the GI50 is 15.3 µM in the assay with SF-295 CNS and 9.27 µM with SK-MEL-5 melanoma. Moreover, the TGI in the assay with IGROV1 ovarian was 38.1 µM; in the assay with M14 melanoma, 15.6 µM; with NCI-H226 lung it was 30.8 µM; in the assay with NCI-H460 lung it was > 95.3 µM; with OVCAR-5 ovarian, 38.9 µM; with SF-268 CNS, 65.9 µM. For the same compound, the TGI in the assay on SF-295 CNS came to 29.8 µM; with SK-MEL-5 melanoma it was 25.3 µM.

Turning to `N=C1c2nc3n(c2C(=O)c2nc4n(c21)CCCC4)CCCC3`, the GI50 is 41.6 µM in the assay with IGROV1 ovarian; 1.82 µM in the assay on M14 melanoma; 1.08 µM in the assay with NCI-H226 lung; 1.59 µM in the assay with NCI-H460 lung; 2.28 µM in the assay on OVCAR-5 ovarian; 11.9 µM in the assay with SF-268 CNS. Further, the GI50 with SF-295 CNS was 1.74 µM; with SK-MEL-5 melanoma, 0.431 µM. The TGI with IGROV1 ovarian is > 100 µM; in the assay on M14 melanoma, 3.29 µM; with NCI-H226 lung, 3.38 µM; with NCI-H460 lung, 3.54 µM; in the assay with OVCAR-5 ovarian, 4.89 µM; with SF-268 CNS, > 74.9 µM. Further, the values for the TGI in the assay on SF-295 CNS and with SK-MEL-5 melanoma were 3.4 µM and 0.864 µM, respectively.

In the case of `CCC1=C[C@@H]2CN(C1)Cc1c([nH]c3ccccc13)[C@@](C(=O)OC)(c1cc3c(cc1OC)N(C=O)[C@H]1[C@@](O)(C(=O)OC)[C@H](OC(C)=O)[C@]4(CC)[C@@H]5C[C@@H]5CN5CC[C@]31[C@@H]54)C2`, the GI50 in the assay with IGROV1 ovarian is 0.00261 µM; with M14 melanoma it was 0.00169 µM; in the assay on NCI-H460 lung, 0.00135 µM; with OVCAR-5 ovarian it was 0.00255 µM; in the assay with SF-268 CNS, 0.00111 µM; in the assay on SF-295 CNS, 0.00156 µM. Further, the GI50 in the assay on SK-MEL-5 melanoma was 0.000921 µM. The TGI in the assay with IGROV1 ovarian is > 6.25 µM; with M14 melanoma it was 0.0643 µM; in the assay with NCI-H226 lung it was > 6.25 µM; in the assay with NCI-H460 lung, > 6.25 µM; with OVCAR-5 ovarian, > 6.25 µM; in the assay on SF-268 CNS it was > 6.25 µM. Besides, the TGI in the assay with SK-MEL-5 melanoma was 0.0315 µM.

Regarding `Cc1ncc([N+](=O)[O-])n1CCNS(=O)(=O)CCCn1ccnc1[N+](=O)[O-]`, the TGI in the assay with IGROV1 ovarian, with M14 melanoma, with NCI-H226 lung, in the assay with NCI-H460 lung, in the assay on OVCAR-5 ovarian and with SF-268 CNS was > 100 µM throughout. Besides, the TGI in the assay on SF-295 CNS and in the assay with SK-MEL-5 melanoma was > 100 µM throughout.
